According to patent US20260198495A1, “BINARY INSECTICIDE COMPOSITION AND USE THEREOF” (SHENYANG SINOCHEM AGROCHEMICALS R & D CO., LTD., priority 2022, published 2026):
Values after ≈ are worked out from the molar mass of the structure shown.

Tests used:
Type in all cases: in vivo
[1] = test system: adult Phyllotreta vittuta Fabr.; test: Joint toxicity of I-72 + acetamiprid, Example 65, Table 65; conditions: 72 h
Protocol: (§1) Test target: adult Phyllotreta vittuta Fabr.
(§2) Preparation of the pesticide solution: according to different test requirements, the test samples were accurately weighed respectively with an electronic analytical balance. The technical pesticides were dissolved in acetone, and then diluted with 0.1% Tween 80 water into a series of pesticide solutions with a certain concentration gradient according to the experimental design dosage.
(§3) Experimental method: first, uniform and consistent potted cabbage seedlings were selected. Then, uniform spraying was performed with the pesticide solution in the order from low dosage to high dosage according to the experimental design. After air-drying in the shade, adult flea beetles were transferred onto the treated cabbage seedlings, and then glass covers were put on them, with about 30-40 adult flea beetles on each seedling and 3 replicates for each treatment. In addition, a blank control was set up.
(§4) The treated test materials were placed in an observation room, and the temperature, humidity and illumination of the observation room could be adjusted as needed. The number of dead and live insects was investigated 72 hours later.

[2] = test system: Nilaparvata lugens (Stal) nymphs; test: Joint toxicity of I-72 + buprofezin, Example 52, Table 52; conditions: 72 h
Protocol: (§5) Test target: Nilaparvata lugens (Stal) nymphs, a sensitive strain reared indoors.
as §2
(§6) Experimental method: the activity of the mixture against the Nilaparvata lugens (Stal) nymphs was determined by adopting the potted-seedling spraying method. First, rice seedlings were planted in culture pots. Uniform spraying was performed with the pesticide solution in the order from low dosage to high dosage according to the experimental design, with 2 mL for each seedling. Then, Nilaparvata lugens nymphs of uniform size were transferred onto the rice seedlings, with 3 replicates for each treatment. In addition, a blank control was set up.
as §4, with “later. […] Then, the co-toxicity coefficient of each ratio was calculated using the Sun Y-P method to evaluate the mixing effect, as in Example 1.” for “later.”

[3] = test system: 3rd-instar larvae of Chilo suppressalis (Walker); test: Joint toxicity of I-72 + chlorantraniliprole, Example 57, Table 57; conditions: in Oryza sativa, 72 h
Protocol: (§7) Test target: 3rd-instar larvae of Chilo suppressalis (Walker).
as §2
(§8) Experimental method: first, tender rice stems were selected and dipped in the prepared pesticide solution for 10 s in the order from low dosage to high dosage according to the experimental design. After natural air-drying in the shade, they were placed in a 9-cm-diameter Petri dish with filter paper, and uniform and healthy test insects were introduced, with 10 insects for each treatment and 3 replicates for each treatment. In addition, a blank control (CK) was set up.
as §4, with “later. […] Then, the co-toxicity coefficient of each ratio was calculated using the Sun Y-P method to evaluate the mixing effect, as in Example 1.” for “later.”

[4] = test system: Myzus persicae (Sulzer) nymphs; test: whole plant or invertebrate; conditions: in Brassica oleracea, 48 h
Protocol: (§9) Test target: Myzus persicae (Sulzer) nymphs, a sensitive strain reared indoors.
as §2
(§10) Experimental method: first, cabbage leaves with uniform and consistent Myzus persicae (Sulzer) were selected, with about 30-40 insects on each leaf. Then, they were evenly sprayed with the pesticide solution in the order from low dosage to high dosage according to the experimental design, with 1.5 mL of the solution for each leaf and 3 replicates for each treatment. In addition, a blank control was set up.
(§11) The treated test materials were placed in an observation room, and the temperature, humidity and illumination of the observation room could be adjusted as needed. The number of dead and live insects was investigated 48 hours later.

[5] = test system: Myzus persicae (Sulzer) nymphs; test: Joint toxicity of I-72 + cyantraniliprole, Example 59, Table 59; conditions: in Brassica oleracea, 48 h
Protocol: as §9, §2, §10
as §11, with “later. […] Then, the co-toxicity coefficient of each ratio was calculated using the Sun Y-P method to evaluate the mixing effect (the same as in Example 1).” for “later.”

[6] = test system: adult Phyllotreta vittuta Fabr.; test: Joint toxicity of I-72 + cyantraniliprole, Example 63, Table 63; conditions: 72 h
Protocol: as §1, §2, §3
as §4, with “later. […] Then, the co-toxicity coefficient of each ratio was calculated using the Sun Y-P method to evaluate the mixing effect (the same as in Example 1).” for “later.”

[7] = test system: Liriomyza sativae Blanchard larvae; test: Joint toxicity of I-72 + cyromazine, Example 55, Table 55; conditions: in Phaseolus vulgaris
Protocol: Test target: Liriomyza sativae Blanchard larvae.
as §2
Experimental method: first, kidney bean seedlings with the Liriomyza sativae Blanchard larvae (the larvae had just invaded and formed mines) were selected. Spraying treatments were performed in the order from low dosage to high dosage according to the experimental design, with 3 replicates for each treatment. In addition, a blank control was set up.
(§12) The treated test materials were placed in an observation room, and the temperature, humidity and illumination of the observation room could be adjusted as needed. After the larvae in the blank control group pupated, the numbers of dead and live insects were then counted. […] Then, the co-toxicity coefficient of each ratio was calculated using the Sun Y-P method to evaluate the mixing effect (the same as in Example 1).

[8] = test system: Frankliniella occidentalis nymphs; test: whole plant or invertebrate; conditions: in Phaseolus vulgaris, foliar, 48 h
Protocol: Test target: Frankliniella occidentalis nymphs.
as §2
as §8, with “first, kidney bean leaves” for “first, tender rice stems”, “with 20-30” for “with 10”, “control” for “control (CK)”
as §12, with “The number” for “After the larvae in the blank control group pupated, the numbers”, “was investigated 48 hours later.” for “were then counted.”

[9] = test system: Myzus persicae (Sulzer) nymphs; test: Joint toxicity of I-72 + fenvalerate, Example 46, Table 46; conditions: in Brassica oleracea, 48 h
Protocol: as §9, §2, §10
as §12, with “The number” for “After the larvae in the blank control group pupated, the numbers”, “was investigated 48 hours later.” for “were then counted.”

[10] = test system: 3-instar larvae of Ostrinia furnacnlis Guenee; test: Joint toxicity of I-72 + flubendiamide, Example 61, Table 61; conditions: in Zea mays, 72 h
Protocol: Test target: 3-instar larvae of Ostrinia furnacnlis Guenee.
as §2
as §8, with “corn” for “rice”, “control” for “control (CK)”
as §12, with “The number” for “After the larvae in the blank control group pupated, the numbers”, “was investigated 72 hours later.” for “were then counted.”

[11] = test system: 2nd-instar larvae of Mythimna separata; test: Joint toxicity of I-72 + hexaflumuron, Example 56, Table 56; conditions: in Zea mays, foliar, 72 h
Protocol: Test target: 2nd-instar larvae of Mythimna separata.
as §2
as §8, with “corn leaves” for “tender rice stems”, “control” for “control (CK)”
as §12, with “The number” for “After the larvae in the blank control group pupated, the numbers”, “was investigated 72 hours later.” for “were then counted.”

[12] = test system: Nilaparvata lugens (Stal) nymphs; test: Joint toxicity of I-72 + imidacloprid, Example 70, Table 70; conditions: 72 h
Protocol: as §5, §2, §6
as §12, with “The number” for “After the larvae in the blank control group pupated, the numbers”, “was investigated 72 hours later.” for “were then counted.”

[13] = test system: 2nd-instar larvae of Spodoptera exigua Hübner; test: Joint toxicity of I-72 + lufenuron, Example 54, Table 54; conditions: in Brassica oleracea, foliar, 72 h
Protocol: (§13) Test target: 2nd-instar larvae of Spodoptera exigua Hübner.
as §2
as §8, with “cabbage leaves” for “tender rice stems”, “control” for “control (CK)”
as §12, with “The number” for “After the larvae in the blank control group pupated, the numbers”, “was investigated 72 hours later.” for “were then counted.”

[14] = test system: 3rd-instar larvae of Chilo suppressalis (Walker); test: Joint toxicity of I-72 + methoxyfenozide, Example 53, Table 53; conditions: in Oryza sativa, 72 h
Protocol: as §7, §2
as §8, with “control” for “control (CK)”
as §12, with “The number” for “After the larvae in the blank control group pupated, the numbers”, “was investigated 72 hours later.” for “were then counted.”

[15] = test system: Aphis gossypii Glover nymphs; test: Joint toxicity of I-72 + nitenpyram, Example 67, Table 67; conditions: 48 h
Protocol: Test target: Aphis gossypii Glover nymphs, a sensitive strain reared indoors.
as §2
as §10, with “cotton” for “cabbage”, “Aphis gossypii” for “Myzus persicae (Sulzer)”, “mL” for “mL of the solution”
as §12, with “The number” for “After the larvae in the blank control group pupated, the numbers”, “was investigated 48 hours later.” for “were then counted.”

Aphis craccivora nymphs = test: whole plant or invertebrate; conditions: in Vicia faba, 48 h
Protocol: Test target: Aphis craccivora nymphs, a sensitive strain reared indoors.
as §2
as §10, with “broad bean seedlings” for “cabbage leaves”, “Aphis craccivora” for “Myzus persicae (Sulzer)”, “seedling.” for “leaf.”
as §11

[16] = test system: 2nd-instar larvae of Spodoptera exigua Hübner; test: whole plant or invertebrate; conditions: A = compound I-72, B = tetrachlorantraniliprole; cabbage leaf dipping; 72 hours
Protocol: as §13, §2
as §8, with “cabbage leaves” for “tender rice stems”, “control” for “control (CK)”
as §4

[17] = test system: 2nd-instar larvae of Plutella xylostella; test: Joint toxicity of I-72 + tetraniliprole, Example 58, Table 58; conditions: A = compound I-72, B = tetraniliprole; cabbage leaf dipping; 72 hours
Protocol: Test target: 2nd-instar larvae of Plutella xylostella.
as §2
as §8, with “cabbage leaves” for “tender rice stems”, “control” for “control (CK)”
as §12, with “The number” for “After the larvae in the blank control group pupated, the numbers”, “was investigated 72 hours later.” for “were then counted.”

[18] = test system: 3rd-instar larvae of Yponomeuta evonymallus (Linnaeus); test: Joint toxicity of I-72 + thiamethoxam, Example 66, Table 66; conditions: A = compound I-72, B = thiamethoxam; leaf dipping; 72 hours
Protocol: Test target: 3rd-instar larvae of Yponomeuta evonymallus (Linnaeus).
as §2
as §8, with “Hylotelephium spectabile leaves” for “tender rice stems”, “control” for “control (CK)”
as §4

[19] = test system: Thrips flavus Schrank nymphs; test: Joint toxicity of I-72 + tolfenpyrad, Example 62, Table 62; conditions: in Solanum melongena, 48 h
Protocol: Test target: Thrips flavus Schrank nymphs.
as §2
Experimental method: first, eggplant seedlings with Thrips flavus Schrank were selected, and the base number was counted. Then, uniform spraying was performed with the pesticide solution in the order from low to high doses according to the experimental design, with 2 mL for each seedling and 3 replicates for each treatment. In addition, a blank control was set up.
as §12, with “The number” for “After the larvae in the blank control group pupated, the numbers”, “was investigated 48 hours later.” for “were then counted.”

[20] = test system: Lipaphis erysimi (Kaltenbach); test: Joint toxicity of I-72 + pyrethrin, Example 47, Table 47; conditions: A = compound I-72, B = pyrethrin; cabbage leaf spraying; 48 hours
Protocol: Test target: Lipaphis erysimi (Kaltenbach).
as §2
as §10, with “Lipaphis erysimi (Kaltenbach)” for “Myzus persicae (Sulzer)”
as §12, with “The number” for “After the larvae in the blank control group pupated, the numbers”, “was investigated 48 hours later.” for “were then counted.”

**Q.** For `C/C(=N\C#N)N(C)Cc1ccc(Cl)nc1` [acetamiprid], which LC50 [1] is on record?
**A.** 7.92 µg/mL

**Q.** For `CC(C)N1C(=O)N(c2ccccc2)CS/C1=N\C(C)(C)C` [buprofezin], which LC50 [2] is on record?
**A.** 1.98 µg/mL

**Q.** How did the LC50 [3] turn out when `CNC(=O)c1cc(Cl)cc(C)c1NC(=O)c1cc(Br)nn1-c1ncccc1Cl` [chlorantraniliprole] was run?
**A.** 1.2 µg/mL

**Q.** `CN/C(=N\[N+](=O)[O-])NCc1cnc(Cl)s1` [clothianidin] was tested. Which LC50 [4] did it give?
**A.** 0.513 µg/mL (≈ 2.05 µM)

**Q.** `CNC(=O)c1cc(C#N)cc(C)c1NC(=O)c1cc(Br)nn1-c1ncccc1Cl` [cyantraniliprole] was tested. Which LC50 [5] did it give?
**A.** 1.18 µg/mL

**Q.** What about the LC50 [6] of the same compound?
**A.** 36.2 µg/mL

**Q.** With `Nc1nc(N)nc(NC2CC2)n1` [cyromazine] as the compound, how does the LC50 [7] read?
**A.** 5.06 µg/mL

**Q.** For `CN/C(=N/CC1CCOC1)N[N+](=O)[O-]` (stereo not drawn) [dinotefuran], which LC50 [8] is on record?
**A.** 75.3 µg/mL (≈ 372 µM)

**Q.** With `CC(C)C(C(=O)OC(C#N)c1cccc(Oc2ccccc2)c1)c1ccc(Cl)cc1` (stereo not drawn) [fenvalerate] as the compound, how does the LC50 [9] read?
**A.** 34.4 µg/mL

**Q.** `Cc1cc(C(F)(C(F)(F)F)C(F)(F)F)ccc1NC(=O)c1cccc(I)c1C(=O)NC(C)(C)CS(C)(=O)=O` [flubendiamide] was tested. Which LC50 [10] did it give?
**A.** 1.02 µg/mL

**Q.** For `O=C(NC(=O)c1c(F)cccc1F)Nc1cc(Cl)c(OC(F)(F)C(F)F)c(Cl)c1` [hexaflumuron], which LC50 [11] is on record?
**A.** 5.57 µg/mL

**Q.** `O=[N+]([O-])NC1=NCCN1Cc1ccc(Cl)nc1` [imidacloprid] was tested. Which LC50 [12] did it give?
**A.** 4.9 µg/mL

**Q.** How did the LC50 [13] turn out when `O=C(NC(=O)c1c(F)cccc1F)Nc1cc(Cl)c(OC(F)(F)C(F)C(F)(F)F)cc1Cl` (stereo not drawn) [lufenuron] was run?
**A.** 12.9 µg/mL

**Q.** Which LC50 [14] does the source give for `COc1cccc(C(=O)NN(C(=O)c2cc(C)cc(C)c2)C(C)(C)C)c1C` [methoxyfenozide] here?
**A.** 8.95 µg/mL

**Q.** `CCN(Cc1ccc(Cl)nc1)/C(=C/[N+](=O)[O-])NC` [nitenpyram] was tested. Which LC50 [15] did it give?
**A.** 0.384 µg/mL

**Q.** Which LC50 (Aphis craccivora nymphs) does the source give for `CC(c1ccc(C(F)(F)F)nc1)S(C)(=O)=NC#N` (stereo not drawn) [sulfoxaflor] here?
**A.** 0.197 µg/mL (≈ 0.709 µM)

**Q.** Which LC50 [16] does the source give for `CNC(=O)c1cc(Cl)cc(Cl)c1NC(=O)c1cc(Br)nn1-c1ncc(Cl)cc1Cl` [tetrachlorantraniliprole] here?
**A.** 0.6491 µg/mL (≈ 1.21 µM)

**Q.** With `CNC(=O)c1cc(C#N)cc(C)c1NC(=O)c1cc(Cn2nnc(C(F)(F)F)n2)nn1-c1ncccc1Cl` [tetraniliprole] as the compound, how does the LC50 [17] read?
**A.** 0.0810 µg/mL

**Q.** With `CN1COCN(Cc2cnc(Cl)s2)/C1=N\[N+](=O)[O-]` [thiamethoxam] as the compound, how does the LC50 [18] read?
**A.** 358.9351 µg/mL

**Q.** Which LC50 [19] does the source give for `CCc1nn(C)c(C(=O)NCc2ccc(Oc3ccc(C)cc3)cc2)c1Cl` [tolfenpyrad] here?
**A.** 28.6 µg/mL

**Q.** Which LC50 [20] does the source give for pyrethrin here?
**A.** 55.3268 µg/mL
